# From US7951551B2, “Kits and reagents for luciferase detection assay system” (PerkinElmer Life and Analytical Sciences B.V., priority 2005, dated 2011)
# Read-outs that look alike come from different tables or passages of the source.
# How the values were obtained:
# [1] = target: Photinus pyralis luciferase (Photinus pyralis, UniProt P08659); settings: compared to freshly prepared luciferase solution; 10% without DTT; cited from earlier work
# luciferase [2] = target: T1, luciferase (Photinus pyralis, UniProt P08659); test: Light yield of the luciferin-luciferase reaction (luciferase detection, TopCount luminescence, 0-420 min); assay type: biochemical, firefly; settings: for final concentration up to which light yield increases: with 0.25 M phosphate
# Source text: A stock solution of 4.0 M Tris (source of ammonium ions) was neutralized with phosphoric acid (H3PO4) until a pH of 7.0 was reached. This stock buffer solution contained 2.0 M of phosphate. The stock solution was used to make a range of assay reagents comprising, respectively, 2.2, 1.1, 0.55, 0.275, 0.138, 0.069, 0.034 and 0.017 M Tris. The phosphate concentration in these assay reagents was […] phosphate, respectively.
# Each reagent was checked for its pH to be 7.0 and was adjusted with small amounts of H3PO4 (several μl of a 2 M H3PO4 solution) if needed. The phosphate anions added in this manner had no significant effect on the above reported phosphate concentration. Each assay reagent was supplemented with D-luciferin, ATP and sodium-thiosulfate (Na2S2O3) by the addition of 250 μl of a freshly prepared stock solution (30 mM ATP, 3 mM D-luciferin, 100 mM thiosulfate adjusted to pH=7.0 with 1 M NaOH) to 2250 μl of assay reagent.
# Luciferase was lyophilized in Dulbecco's-PBS with Mg and Ca (D'PBS^++) containing 0.05 g/ml trehalose and 0.016 g/ml BSA). Luciferase samples were prepared by reconstituting lyophilized luciferase in 200 μl water. The resulting solution was then diluted 100-fold by adding 150 μl of the reconstituted luciferase to 15 ml PBS (8.1 mM NaH2PO4, 1.5 mM KH2PO4, 2.7 mM KCl and 137 mM NaCl) containing 5 mM MgCl2, 5 mM CaCl2, 5 mM EDTA, 0.4% Thesit (a non-ionic detergent) and 0.1% bovine serum albumin (BSA). This yielded the “luciferase sample” solution which contained 27 ng/ml of luciferase.
# The microplate was shaken for 10 seconds at 1100 rpm on a microplate-shaker and then immediately placed in a TopCount®-NXT Microplate Scintillation and Luminescence Counter. The resulting luminescent light signal was measured immediately after loading the microplate into the counter. The measurement was repeated after 5 and 10 minutes.
# Final Tris concentrations in the different reaction mixtures were: 1.0, 0.5, 0.25, 0.125, 0.063, 0.031, 0.016 and 0.008 M. The phosphate concentrations were 0.5, 0.25, 0.125, 0.063, 0.031, 0.016, 0.008 and 0.004 M phosphate ions respectively. Final Mg^2+, D-luciferin, ATP, thiosulfate and luciferase concentrations in the reaction mixtures were 2.5 mM, 150 μM, 1.5 mM, 5 mM and 14 pg/μl, respectively.
# FIG. 1 illustrates the effect of increasing Tris-phosphate concentrations in the luciferin-luciferase reaction mixture on the initial height and the decay of the light signal. To compare the total light yield (expressed as 10^9 counts) of each reaction mixture the areas under the curves were calculated by integrating the equations of the curves between 0 and 420 minutes. These equations of the curves were obtained using the option ‘trend line with equation’ of Microsoft Excel® software.
# Stock solutions of 4.0 M ethanolamine (H2NCH2CH2OH) and 3.0 M ammonium-phosphate ((NH4)2HPO4) were neutralized with phosphoric acid (H3PO4) until pH 7.0 was reached. Dilutions were made in the same manner as described in example 1. Furthermore, all methods and other chemicals used to create the assay mixture and to test this for its light yield in a luciferin-luciferase reaction, were standardized and thus the same as in example 1. Final ethanolamine concentrations in the assay were 1.0, 0.5, 0.25, 0.125, 0.063, 0.031, 0.016 and 0.008 M, and 0.5, 0.25, 0.125, 0.063, 0.031, 0.016, 0.008 and 0.004 M phosphate, respectively. According to the present invention, a final concentration of 1M ethanolamine is assumed to provide the aqueous, neutral reaction mixture with 1M of ammonium ions. Thus, the concentration of ammonium ions in the reaction mixture is regarded to be identical to that of the source of ammonium ions. […]
# Quantification of the reaction kinetics through surface area calculation under the curves is shown in Table 4 (ethanolamine-phosphate dilutions) and Table 5 (for ammonium-phosphate dilutions). […]
# Target sequence in this assay (P08659 whole entry): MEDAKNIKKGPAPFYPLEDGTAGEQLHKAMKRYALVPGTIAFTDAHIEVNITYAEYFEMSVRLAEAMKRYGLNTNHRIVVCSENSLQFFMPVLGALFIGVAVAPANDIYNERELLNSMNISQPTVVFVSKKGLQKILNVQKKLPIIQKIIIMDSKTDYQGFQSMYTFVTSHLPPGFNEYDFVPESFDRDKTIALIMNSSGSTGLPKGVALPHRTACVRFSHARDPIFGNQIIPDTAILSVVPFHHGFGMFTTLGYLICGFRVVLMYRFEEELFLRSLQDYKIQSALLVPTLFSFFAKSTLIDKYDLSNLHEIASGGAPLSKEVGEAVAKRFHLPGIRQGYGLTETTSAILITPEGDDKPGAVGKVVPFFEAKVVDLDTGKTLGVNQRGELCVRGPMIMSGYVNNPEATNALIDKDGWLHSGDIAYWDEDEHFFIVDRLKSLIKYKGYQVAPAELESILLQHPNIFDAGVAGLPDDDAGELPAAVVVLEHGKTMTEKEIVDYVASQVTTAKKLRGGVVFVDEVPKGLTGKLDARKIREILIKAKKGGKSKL
# [3] = cited from earlier work; for pKa (D/° C.): temperature coefficient of pKa, in brackets
# luciferase [4] = target: T1, luciferase; settings: CoA in the assay reagent (U.S. Pat. No. 5,283,179); cited from earlier work
# Target sequence in this assay (P08659 whole entry): as above
# luciferase [5] = target: T1, luciferase; test: Light yield of the luciferin-luciferase reaction (luciferase detection, TopCount luminescence, 0-420 min); assay type: biochemical, firefly; settings: 0.5 mM reducing agent, 0.5 M Tris and 0.25 M phosphate
# Target sequence in this assay (P08659 whole entry): as above
# [6] = cited from earlier work
# luciferase [7] = target: T1, luciferase; design: host or cells: eukaryotic cells (unspecified); settings: 1% detergent, chemical lysis of eukaryotic cells; cited from earlier work
# Target sequence in this assay (P08659 whole entry, species assumed): as the sequence (P08659 whole entry) above
# luciferase [8] = target: T1, luciferase; settings: luciferase assay, up to 100 mM Tris-phosphate, integral 1-420 minutes
# Target sequence in this assay (P08659 whole entry): as above
# Protocol: (§1) For this experiment 16 different reagent mixtures were prepared; 8 mixtures (for the ATP assay) contained a large amount of luciferase, a small amount of ATP and increasing Tris-phosphate concentrations and 8 mixtures (for the luciferase assay) contained a large amount of ATP, a small amount of luciferase and increasing amounts of Tris-phosphate. To reduce variances that might be introduced by small concentrations differences between the reagents, all reagents were made from the same stock solutions where possible.
# A “luciferase sample” was prepared by reconstituting a lyophilized luciferase control sample (PerkinElmer Inc.) in H2O and diluting this in Dulbecco's PBS with Ca/Mg (D'PBS^++) to a 1.0×10^−7 g/l luciferase solution.
# (§2) Likewise, in the same microplate the reaction kinetics when assaying for luciferase were measured by pipetting 100 μl of each Tris-phosphate concentration reagent with ATP, and adding 100 μl of “luciferase sample”.
# (§3) The microplate was shaken for 10 seconds on a microplate-shaker and sealed with TopSeal-A™ (PerkinElmer Inc.). […] The luminescent light signal was immediately measured, meaning about 1 minute after mixing reagent and sample, and after 5 and 10 minutes. Hereafter the signal was measured repeatedly with 15 minute intervals to a total time of 420 minutes. […] The emitted light was quantified as counts per second (cps), count time 3 seconds per well.
# luciferase [9] = target: T1, luciferase; settings: ATP assay, higher Tris-phosphate ion concentrations, integral 1-420 minutes
# Target sequence in this assay (P08659 whole entry): as above
# Protocol: as §1
# An “ATP sample” was prepared by diluting a reconstituted lyophilized ATP standard (PerkinElmer Inc.) in D'PBS^++ resulting in a 1.0×10^−8 mM ATP solution.
# as §2, §3
# [10] = 5 mM reducing agent, 0.5 M Tris and 0.25 M phosphate
# Sequence of Photinus pyralis luciferase (P08659 whole entry): as above
compound,measurement,setting,value
"O[C@H](CS)[C@H](O)CS (racemic) [DTT, dithiothreitol]",luciferase activity maintained in aged luciferase solution,[1],50%
same,Light Yield,luciferase [2]; [10],167.5 10^9counts
"NC(=O)CNCCS(=O)(=O)O [ACES, N-(2-acetamido)-2-aminoethanesufonic acid]",pKa at 20° C.,[3],6.88
same,pKa (D/° C.),[3],−0.020 D/° C.
"NC(=O)CN(CC(=O)O)CC(=O)O [ADA, N-(2-acetamido)iminodiacetic acid]",pKa (D/° C.),[3],−0.011 D/° C.
"N.N.N.O=P(O)(O)O [Ammonium, ammonium-phosphate]",Light Yield,"luciferase [2]; 0.016 M ammonium, […] phosphate, pH 7.0, 28 mM MOPS",31.8 10^9counts
same,Light Yield,"luciferase [2]; 0.031 M ammonium, 0.021 M phosphate, pH 7.0, 28 mM MOPS",43.7 10^9counts
same,Light Yield,"luciferase [2]; 0.063 M ammonium, 0.043 M phosphate, pH 7.0, 28 mM MOPS",69.3 10^9counts
same,Light Yield,"luciferase [2]; 0.125 M ammonium, 0.088 M phosphate, pH 7.0, 28 mM MOPS",83.2 10^9counts
same,Light Yield,"luciferase [2]; 0.25 M ammonium, 0.175 M phosphate, pH 7.0, 28 mM MOPS",88.9 10^9counts
same,Light Yield,"luciferase [2]; 0.5 M ammonium, 0.35 M phosphate, pH 7.0, 28 mM MOPS",113.1 10^9counts
same,Light Yield,"luciferase [2]; 1.0 M ammonium, 0.7 M phosphate, pH 7.0, 28 mM MOPS",80.7 10^9counts
same,Light Yield,"luciferase [2]; 2.0 M ammonium, 1.4 M phosphate, pH 7.0, 28 mM MOPS",44.6 10^9counts
same,concentration up to which light yield increases,luciferase [2]; with 350 mM of phosphate,500 mM
"O=S(=O)(O)CCN(CCO)CCO [BES, N,N-bis(2-hydroxyethyl)-2-aminoethanesulfonic acid]",pKa (D/° C.),[3],(−0.016) D/° C.
"O=C(O)CN(CCO)CCO [Bicine, N,N-bis(2-hydroxyethyl)glycine]",pKa (D/° C.),[3],(−0.018) D/° C.
"O=S(=O)(O)CCCNC1CCCCC1 [CAPS, 3-(cyclohexylamino)-1-propanesulfonic acid]",pKa (D/° C.),[3],(0.032) D/° C.
"O=S(=O)(O)CCNC1CCCCC1 [CHES, 2-(cyclohexylamino)-1-ethanesulfonic acid]",pKa at 20° C.,[3],9.55
same,pKa (D/° C.),[3],(−0.011) D/° C.
"CC(C)(COP(=O)(O)OP(=O)(O)OC[C@H]1O[C@@H](n2cnc3c(N)ncnc32)[C@H](O)[C@@H]1OP(=O)(O)O)[C@@H](O)C(=O)NCCC(=O)NCCS [CoA, coenzyme A]",time for which increased light output is maintained,luciferase [4],at least 60 seconds
"NCCO [Ethanolamine, ethanolamine]",Light Yield,"luciferase [2]; 0.008 M ethanolamine, 0.004 M phosphate, pH 7.0",41.6 10^9counts
same,Light Yield,"luciferase [2]; 0.016 M ethanolamine, 0.008 M phosphate, pH 7.0",49.6 10^9counts
same,Light Yield,"luciferase [2]; 0.031 M ethanolamine, 0.016 M phosphate, pH 7.0",59.2 10^9counts
same,Light Yield,"luciferase [2]; 0.063 M ethanolamine, 0.031 M phosphate, pH 7.0",70.0 10^9counts
same,Light Yield,"luciferase [2]; 0.125 M ethanolamine, 0.063 M phosphate, pH 7.0",96.2 10^9counts
same,Light Yield,"luciferase [2]; 0.25 M ethanolamine, 0.125 M phosphate, pH 7.0",115.4 10^9counts
same,Light Yield,"luciferase [2]; 0.5 M ethanolamine, 0.25 M phosphate, pH 7.0",124.8 10^9counts
same,Light Yield,"luciferase [2]; 1.0 M ethanolamine, 0.5 M phosphate, pH 7.0",99.0 10^9counts
same,final concentration up to which light yield increases,luciferase [2],0.5 M
"O=S(=O)(O)CCCN1CCN(CCO)CC1 [HEPPS (EPPS), 4-(2-hydroxyethyl)piperazine-1-propanesulfonic acid]",pKa (D/° C.),[3],−0.011 D/° C.
"O=S(=O)(O)CCCN1CCOCC1 [MOPS, 3-morpholinopropanesulfonic acid]",pKa (D/° C.),[3],−0.011 D/° C.
"O=S(O)(O)=S [Na2S2O3, sodium-thiosulfate]",Light Yield,luciferase [2]; [10],147.7 10^9counts
"O=S([O-])S(=O)[O-].[Na+].[Na+] [Na2S2O4, sodium-dithionite]",Light Yield,luciferase [5],128.4 10^9counts
"O=S([O-])[O-].[Na+].[Na+] [Na2SO3, sodium-sulfite]",Light Yield,luciferase [2]; [10],136.8 10^9counts
"O=S(=O)(O)CCCNC(CO)(CO)CO [TAPS, N-[tris(hydroxymethyl)methyl]-3-aminopropanesulfonic acid]",pKa (D/° C.),[3],(0.018) D/° C.
"O=C(O)CCP(CCC(=O)O)CCC(=O)O [TCEP, Tris(2-carboxyethyl) phosphine]",Light Yield,luciferase [2]; [10],122.1 10^9counts
"O=C(O)CNC(CO)(CO)CO [Tricine, N-[tris(hydroxymethyl)methyl]-glycine]",pKa (D/° C.),[3],(−0.021) D/° C.
CC(C)N [isopropylamine],pKa,[6],10.82
Triton™ X-100,greater light output over simple freeze-thaw lysis,luciferase [7],≤ 25 fold
tris(hydroxymethyl)aminomethane,effect on total luminescence,luciferase [8],enhances total luminescence
same,Light Yield,"luciferase [2]; 0.008 M Tris, 0.004 M phosphate, pH 7.0, 0-420 min",44.4 10^9counts
same,Light Yield,"luciferase [2]; 0.016 M Tris, 0.008 M phosphate, pH 7.0, 0-420 min",52.9 10^9counts
same,Light Yield,"luciferase [2]; 0.031 M Tris, 0.016 M phosphate, pH 7.0, 0-420 min",63.0 10^9counts
same,Light Yield,"luciferase [2]; 0.063 M Tris, 0.031 M phosphate, pH 7.0, 0-420 min",80.4 10^9counts
same,Light Yield,"luciferase [2]; 0.125 M Tris, 0.063 M phosphate, pH 7.0, 0-420 min",103.4 10^9counts
same,Light Yield,"luciferase [2]; 0.25 M Tris, 0.125 M phosphate, pH 7.0, 0-420 min",126.8 10^9counts
same,Light Yield,"luciferase [2]; 0.5 M Tris, 0.25 M phosphate, pH 7.0, 0-420 min",137.3 10^9counts
same,Light Yield,"luciferase [2]; 1.0 M Tris, 0.5 M phosphate, pH 7.0, 0-420 min",123.8 10^9counts
same,final concentration up to which light yield increases,luciferase [2],0.5 M
same,effect on total luminescence,luciferase [9],inhibit total luminescence
